Biological target: α7 nAChR subtype (Rattus norvegicus, UniProt Q05941)
Experiment: Test A: 125I-α-Bungarotoxin binding to rat hippocampal membranes (affinity at α7 nAChR subtype)
Conditions: [125I]α-BTX displacement, rat hippocampal membranes
Experimental: Test A—Assay for Affinity at α7 nAChR subtype
125I-α-Bungarotoxin (BTX) binding to rat hippocampal membranes. Rat hippocampi were homogenized in 20 volumes of cold homogenization buffer (HB: concentrations of constituents (mM): tris(hydroxymethyl)aminomethane 50; MgCl2 1; NaCl 120; KCl 5: pH 7.4). The homogenate was centrifuged for 5 minutes at 1000 g, the supernatant was saved and the pellet re-extracted. The pooled supernatants were centrifuged for 20 minutes at 12,000 g, washed, and re-suspended in HB. Membranes (30-80 μg) were incubated with 5 nM [^125I] α-BTX, 1 mg/mL BSA (bovine serum albumin), test drug, and either 2 mM CaCl2 or 0.5 mM EGTA [ethylene glycol-bis(β-aminoethylether)] for 2 hours at 21° C., and then filtered and washed 4 times over Whatman glass fibre filters (thickness C) using a Brandel cell harvester.
Binding data analysis for Tests A and B
IC50 values and pseudo Hill coefficients (nH) were calculated using the non-linear curve fitting program ALLFIT (DeLean A, Munson P J and Rodbard D (1977) Am. J. Physiol., 235:E97-E102). […] Ki values were determined using 6 or more drug concentrations.

Sequence of α7 nAChR subtype (Q05941 23-502): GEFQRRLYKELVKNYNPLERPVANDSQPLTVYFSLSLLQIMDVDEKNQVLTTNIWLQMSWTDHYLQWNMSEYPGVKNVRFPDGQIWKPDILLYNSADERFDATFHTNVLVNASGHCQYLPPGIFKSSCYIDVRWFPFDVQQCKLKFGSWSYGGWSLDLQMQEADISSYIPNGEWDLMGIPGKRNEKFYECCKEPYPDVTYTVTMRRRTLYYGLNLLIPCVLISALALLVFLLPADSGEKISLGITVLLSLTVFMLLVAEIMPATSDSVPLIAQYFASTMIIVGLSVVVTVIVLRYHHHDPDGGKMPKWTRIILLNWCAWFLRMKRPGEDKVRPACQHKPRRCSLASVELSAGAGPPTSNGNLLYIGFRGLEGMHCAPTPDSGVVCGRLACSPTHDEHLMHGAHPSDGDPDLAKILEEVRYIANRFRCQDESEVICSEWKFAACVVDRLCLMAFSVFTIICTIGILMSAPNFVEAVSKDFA

Row | Compound | Ki [nM]
1 | COc1ccc(-c2ccc3c(c2)C(=O)N([C@H]2CN4CCC2CC4)C3)cc1 [Example 28, 2-(R)-1-Aza-bicyclo[2.2.2]oct-3-yl-6-(4-methoxy-phenyl)-2,3-dihydro-isoindol-1-one] | 77
2 | O=C1c2cc(Cl)ccc2CN1[C@H]1CN2CCC1CC2 [Example 29, 2-(R)-1-Aza-bicyclo[2.2.2]oct-3-yl-6-chloro-2,3-dihydro-isoindol-1-one] | 289
3 | COc1cccc(-c2ccc3c(c2)C(=O)N([C@H]2CN4CCC2CC4)C3)c1 [Example 30, 2-(R)-1-Aza-bicyclo[2.2.2]oct-3-yl-6-(3-methoxy-phenyl)-2,3-dihydro-isoindol-1-one] | 21.8
4 | O=C1c2cc(-c3cccc(Cl)c3)ccc2CN1[C@H]1CN2CCC1CC2 [Example 31, 2-(R)-1-Aza-bicyclo[2.2.2]oct-3-yl-6-(3-chloro-phenyl)-2,3-dihydro-isoindol-1-one] | 45.4
5 | O=C1c2cc(-c3ccc(Cl)cc3)ccc2CN1[C@H]1CN2CCC1CC2 [Example 32, 2-(R)-1-Aza-bicyclo[2.2.2]oct-3-yl-6-(4-chloro-phenyl)-2,3-dihydro-isoindol-1-one] | 90
6 | O=C1c2cc(-c3cccc4cccnc34)ccc2CN1[C@H]1CN2CCC1CC2 [Example 33, 2-(R)-1-Aza-bicyclo[2.2.2]oct-3-yl-6-quinolin-8-yl-2,3-dihydro-isoindol-1-one] | 90
7 | O=C1c2cc(-c3ccc4c(c3)OCO4)ccc2CN1[C@H]1CN2CCC1CC2 [Example 34, 2-(R)-1-Aza-bicyclo[2.2.2]oct-3-yl-6-benzo[1,3]dioxol-5-yl-2,3-dihydro-isoindol-1-one] | 37
8 | O=C1c2cc(-c3ccccc3Cl)ccc2CN1[C@H]1CN2CCC1CC2 [Example 35, 2-(R)-1-Aza-bicyclo[2.2.2]oct-3-yl-6-(2-chloro-phenyl)-2,3-dihydro-isoindol-1-one] | 6.3
9 | COc1ccccc1-c1ccc2c(c1)C(=O)N([C@H]1CN3CCC1CC3)C2 [Example 36, 2-(R)-1-Aza-bicyclo[2.2.2]oct-3-yl-6-(2-methoxy-phenyl)-2,3-dihydro-isoindol-1-one] | 24
10 | CC(=O)Nc1cccc(-c2ccc3c(c2)C(=O)N([C@H]2CN4CCC2CC4)C3)c1 [Example 37, N-[3-((R)-2-1-Aza-bicyclo[2.2.2]oct-3-yl-3-oxo-2,3-dihydro-1H-isoindol-5-yl)-phenyl]-acetamide] | 7
11 | CN1CCN(c2ccc3c(c2)C(=O)N([C@H]2CN4CCC2CC4)C3)CC1 [Example 38, 2-(R)-1-Aza-bicyclo[2.2.2]oct-3-yl-6-(4-methyl-piperazin-1-yl)-2,3-dihydro-isoindol-1-one] | 424
12 | O=C1c2cc(N3CCOCC3)ccc2CN1[C@H]1CN2CCC1CC2 [Example 39, 2-(R)-1-Aza-bicyclo[2.2.2]oct-3-yl-6-morpholin-4-yl-2,3-dihydro-isoindol-1-one] | 421
13 | CN(C)C(=O)c1ccc(-c2ccc3c(c2)C(=O)N([C@H]2CN4CCC2CC4)C3)cc1 [Example 40, 4-((R)-2-1-Aza-bicyclo[2.2.2]oct-3-yl-3-oxo-2,3-dihydro-1H-isoindol-5-yl)-N,N-dimethyl-benzamide] | 353
14 | O=C1c2cc(-c3ccc4ncccc4c3)ccc2CN1[C@H]1CN2CCC1CC2 [Example 41, 2-(R)-1-Aza-bicyclo[2.2.2]oct-3-yl-6-quinolin-6-yl-2,3-dihydro-isoindol-1-one] | 329
15 | O=C1c2cc(-c3cccc4ncccc34)ccc2CN1[C@H]1CN2CCC1CC2 [Example 42, 2-(R)-1-Aza-bicyclo[2.2.2]oct-3-yl-6-quinolin-5-yl-2,3-dihydro-isoindol-1-one] | 89.6
16 | CS(=O)(=O)c1cccc(-c2ccc3c(c2)C(=O)N([C@H]2CN4CCC2CC4)C3)c1 [Example 43, 2-(R)-1-Aza-bicyclo[2.2.2]oct-3-yl-6-(3-methanesulfonyl-phenyl)-2,3-dihydro-isoindol-1-one] | 94
17 | CS(=O)(=O)c1ccc(-c2ccc3c(c2)C(=O)N([C@H]2CN4CCC2CC4)C3)cc1 [Example 44, 2-(R)-1-Aza-bicyclo[2.2.2]oct-3-yl-6-(4-methanesulfonyl-phenyl)-2,3-dihydro-isoindol-1-one] | 321
18 | O=C1c2cc(-c3cnc4ccccc4c3)ccc2CN1[C@H]1CN2CCC1CC2 [Example 45, 2-(R)-1-Aza-bicyclo[2.2.2]oct-3-yl-6-quinolin-3-yl-2,3-dihydro-isoindol-1-one] | 66.8

Row | Compound | Ki [nM]
19 | COc1ccc(-c2ccc3c(c2)C(=O)N([C@H]2CN4CCC2CC4)C3)cn1 [Example 46, 2-(R)-1-Aza-bicyclo[2.2.2]oct-3-yl-6-(6-methoxy-pyridin-3-yl)-2,3-dihydro-isoindol-1-one] | 290
20 | O=C1c2cc(-c3cccc4cnccc34)ccc2CN1[C@H]1CN2CCC1CC2 [Example 47, 2-(R)-1-Aza-bicyclo[2.2.2]oct-3-yl-6-isoquinolin-5-yl-2,3-dihydro-isoindol-1-one] | 32
21 | O=C1c2cc(-c3cncc4ccccc34)ccc2CN1[C@H]1CN2CCC1CC2 [Example 48, 2-(R)-1-Aza-bicyclo[2.2.2]oct-3-yl-6-isoquinolin-4-yl-2,3-dihydro-isoindol-1-one] | 112
22 | CC(=O)Nc1ccc(-c2ccc3c(c2)C(=O)N([C@H]2CN4CCC2CC4)C3)cc1 [Example 49, N-[4-((R)-2-1-Aza-bicyclo[2.2.2]oct-3-yl-3-oxo-2,3-dihydro-1H-isoindol-5-yl)-phenyl]-acetamide] | 3.2
23 | Cn1cc(-c2ccc3c(c2)C(=O)N([C@H]2CN4CCC2CC4)C3)cn1 [Example 50, 2-(R)-1-Aza-bicyclo[2.2.2]oct-3-yl-6-(1-methyl-1H-pyrazol-4-yl)-2,3-dihydro-isoindol-1-one] | 61
24 | O=C1c2cc(-c3cnn(Cc4ccccc4)c3)ccc2CN1[C@H]1CN2CCC1CC2 [Example 51, 2-(R)-1-Aza-bicyclo[2.2.2]oct-3-yl-6-(1-benzyl-1H-pyrazol-4-yl)-2,3-dihydro-isoindol-1-one] | 146
25 | CN(C)C(=O)c1cccc(-c2ccc3c(c2)C(=O)N([C@H]2CN4CCC2CC4)C3)c1 [Example 52, 3-((R)-2-1-Aza-bicyclo[2.2.2]oct-3-yl-3-oxo-2,3-dihydro-1H-isoindol-5-yl)-N,N-dimethyl-benzamide] | 31
26 | CCNC(=O)c1ccc(-c2ccc3c(c2)C(=O)N([C@H]2CN4CCC2CC4)C3)cc1 [Example 53, 4-((R)-2-1-Aza-bicyclo[2.2.2]oct-3-yl-3-oxo-2,3-dihydro-1H-isoindol-5-yl)-N-ethyl-benzamide] | 348
27 | COc1cc(OC)cc(-c2ccc3c(c2)C(=O)N([C@H]2CN4CCC2CC4)C3)c1 [Example 54, 2-(R)-1-Aza-bicyclo[2.2.2]oct-3-yl-6-(3,5-dimethoxy-phenyl)-2,3-dihydro-isoindol-1-one] | 669
28 | NC(=O)c1cccc(-c2ccc3c(c2)C(=O)N([C@H]2CN4CCC2CC4)C3)c1 [Example 55, 3-((R)-2-1-Aza-bicyclo[2.2.2]oct-3-yl-3-oxo-2,3-dihydro-1H-isoindol-5-yl)-benzamide] | 17
29 | O=C(NCc1ccccc1)c1ccc(-c2ccc3c(c2)C(=O)N([C@H]2CN4CCC2CC4)C3)cc1 [Example 56, 4-((R)-2-1-Aza-bicyclo[2.2.2]oct-3-yl-3-oxo-2,3-dihydro-1H-isoindol-5-yl)-N-benzyl-benzamide] | 100
30 | Nc1cccc(-c2ccc3c(c2)C(=O)N([C@H]2CN4CCC2CC4)C3)c1 [Example 57, 6-(3-Amino-phenyl)-2-(R)-1-aza-bicyclo[2.2.2]oct-3-yl-2,3-dihydro-isoindol-1-one] | 6.4
31 | CCC(=O)Nc1cccc(-c2ccc3c(c2)C(=O)N([C@H]2CN4CCC2CC4)C3)c1 [Example 58, N-[3-((R)-2-1-Aza-bicyclo[2.2.2]oct-3-yl-3-oxo-2,3-dihydro-1H-isoindol-5-yl)-phenyl]-propionamide] | 1.7
32 | COc1cncc(-c2ccc3c(c2)C(=O)N([C@H]2CN4CCC2CC4)C3)c1 [Example 59, 2-(R)-1-Aza-bicyclo[2.2.2]oct-3-yl-6-(5-methoxy-pyridin-3-yl)-2,3-dihydro-isoindol-1-one] | 383
33 | O=C1c2cc(-c3ccc4c(c3)OCCO4)ccc2CN1[C@H]1CN2CCC1CC2 [Example 60, 2-(R)-1-Aza-bicyclo[2.2.2]oct-3-yl-6-(2,3-dihydro-benzo[1,4]dioxin-6-yl)-2,3-dihydro-isoindol-1-one] | 28
34 | CC(C)Oc1cccc(-c2ccc3c(c2)C(=O)N([C@H]2CN4CCC2CC4)C3)c1 [Example 61, 2-(R)-1-Aza-bicyclo[2.2.2]oct-3-yl-6-(3-isopropoxy-phenyl)-2,3-dihydro-isoindol-1-one] | 14
35 | O=C1c2cc(-c3cccc(OC(F)(F)F)c3)ccc2CN1[C@H]1CN2CCC1CC2 [Example 62, 2-(R)-1-Aza-bicyclo[2.2.2]oct-3-yl-6-(3-trifluoromethoxy-phenyl)-2,3-dihydro-isoindol-1-one] | 48
36 | O=C(Nc1cccc(-c2ccc3c(c2)C(=O)N([C@H]2CN4CCC2CC4)C3)c1)c1ccccc1 [Example 64, N-[3-((R)-2-1-Aza-bicyclo[2.2.2]oct-3-yl-3-oxo-2,3-dihydro-1H-isoindol-5-yl)-phenyl]-benzamide] | 3.9

Same assay, conditions: read-out: KD of radioligand (saturation curve, one site model)

Row | Compound | Kd [nM]
37 | 125I-α-Bungarotoxin [[^125I]-α-BTX, reference compound] | 1.67

From patent US7566727B2, “2-(1-aza-bicyclo[2.2.2]oct-3-yl)-2,3-dihydro-isoindole-1-one/5,6-dihydro-furo[2,3-c] pyrrol-4-one derivative ligands for alpha 7 nicotinic acetylcholine receptor” (priority 2004, dated 2009)
